PubChem BioAssay (NCI)
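Briefly, cells in 96-well plates were exposed to five compound concentrations for 48 h, and endpoints were estimated by linear interpolation. Abbreviation: GI50, concentration required for 50% inhibition of growth. TGI: total growth inhibition.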

Tests used:
Assay in all cases: DTP human tumour cell line panel, 48 h
OVCAR-5 ovarian = system: OVCAR-5 ovarian
IGROV1 ovarian = system: IGROV1 ovarian
EKVX NSCLC = system: EKVX NSCLC
M14 melanoma = system: M14 melanoma
NCI/ADR-RES ovarian = system: NCI/ADR-RES ovarian
BT-549 breast = system: BT-549 breast
SNB-19 CNS = system: SNB-19 CNS
DU-145 prostate = system: DU-145 prostate
K-562 leukemia = system: K-562 leukemia
COLO 205 colon = system: COLO 205 colon
T-47D breast = system: T-47D breast
MDA-MB-435 = system: MDA-MB-435
HS 578T breast = system: HS 578T breast
SK-MEL-28 melanoma = system: SK-MEL-28 melanoma
SR leukemia = system: SR leukemia
SW-620 colon = system: SW-620 colon
UACC-257 melanoma = system: UACC-257 melanoma
A549 NSCLC = system: A549 NSCLC
NCI-H23 lung = system: NCI-H23 lung
PC-3 prostate = system: PC-3 prostate
RXF 393 renal = system: RXF 393 renal
UO-31 renal = system: UO-31 renal
HCC-2998 colon = system: HCC-2998 colon
OVCAR-8 ovarian = system: OVCAR-8 ovarian
SF-295 CNS = system: SF-295 CNS
CCRF-CEM leukemia = system: CCRF-CEM leukemia
OVCAR-3 ovarian = system: OVCAR-3 ovarian
TK-10 renal = system: TK-10 renal
HL-60(TB) leukemia = system: HL-60(TB) leukemia
SF-268 CNS = system: SF-268 CNS
ACHN renal = system: ACHN renal
CAKI-1 renal = system: CAKI-1 renal
SNB-75 CNS = system: SNB-75 CNS
MALME-3M melanoma = system: MALME-3M melanoma
RPMI-8226 leukemia = system: RPMI-8226 leukemia
KM12 colon = system: KM12 colon
HOP-62 NSCLC = system: HOP-62 NSCLC
NCI-H226 lung = system: NCI-H226 lung
MDA-MB-231 breast = system: MDA-MB-231 breast
OVCAR-4 ovarian = system: OVCAR-4 ovarian
HCT-116 colon = system: HCT-116 colon
SK-MEL-5 melanoma = system: SK-MEL-5 melanoma
SF-539 CNS = system: SF-539 CNS
SK-OV-3 ovarian = system: SK-OV-3 ovarian
NCI-H522 lung = system: NCI-H522 lung
MCF7 breast = system: MCF7 breast
786-0 renal = system: 786-0 renal
LOX IMVI melanoma = system: LOX IMVI melanoma
HT29 colon = system: HT29 colon
HCT-15 colon = system: HCT-15 colon
SK-MEL-2 melanoma = system: SK-MEL-2 melanoma
NCI-H460 lung = system: NCI-H460 lung
MOLT-4 leukemia = system: MOLT-4 leukemia
A498 renal = system: A498 renal
HOP-92 NSCLC = system: HOP-92 NSCLC

C=C1C(=O)O[C@H]2[C@H]1CC/C(COC(=O)NCCc1cccc(OC)c1)=C\CC[C@@]1(C)O[C@@H]21
GI50 (OVCAR-5 ovarian): 2250 nM | TGI (OVCAR-5 ovarian): 6050 nM | GI50 (IGROV1 ovarian): 1260 nM | TGI (IGROV1 ovarian): 3050 nM | GI50 (EKVX NSCLC): 1780 nM | TGI (EKVX NSCLC): 4250 nM | GI50 (M14 melanoma): 1290 nM | TGI (M14 melanoma): 2920 nM | GI50 (NCI/ADR-RES ovarian): 2950 nM | TGI (NCI/ADR-RES ovarian): 10800 nM | GI50 (BT-549 breast): 1510 nM | TGI (BT-549 breast): 3120 nM | GI50 (SNB-19 CNS): 1430 nM | TGI (SNB-19 CNS): 3130 nM | GI50 (DU-145 prostate): 892 nM | TGI (DU-145 prostate): 2160 nM | GI50 (K-562 leukemia): 613 nM | TGI (K-562 leukemia): 6250 nM | GI50 (COLO 205 colon): 1550 nM | TGI (COLO 205 colon): 3280 nM | GI50 (T-47D breast): 1610 nM | TGI (T-47D breast): 4030 nM | GI50 (MDA-MB-435): 1580 nM | TGI (MDA-MB-435): 3700 nM | GI50 (HS 578T breast): 3430 nM | TGI (HS 578T breast): 21600 nM | GI50 (SK-MEL-28 melanoma): 1350 nM | TGI (SK-MEL-28 melanoma): 3300 nM | GI50 (SR leukemia): 511 nM | TGI (SR leukemia): 2860 nM | GI50 (SW-620 colon): 502 nM | TGI (SW-620 colon): 2010 nM | GI50 (UACC-257 melanoma): 1530 nM | TGI (UACC-257 melanoma): 3400 nM | GI50 (A549 NSCLC): 7280 nM | TGI (A549 NSCLC): 21900 nM | GI50 (NCI-H23 lung): 1860 nM | TGI (NCI-H23 lung): 4330 nM | GI50 (PC-3 prostate): 2300 nM | TGI (PC-3 prostate): 5540 nM | GI50 (RXF 393 renal): 673 nM | TGI (RXF 393 renal): 2380 nM | GI50 (UO-31 renal): 1390 nM | TGI (UO-31 renal): 2860 nM | GI50 (HCC-2998 colon): 1680 nM | TGI (HCC-2998 colon): 3290 nM | GI50 (OVCAR-8 ovarian): 2260 nM | TGI (OVCAR-8 ovarian): 8030 nM | GI50 (SF-295 CNS): 7260 nM | TGI (SF-295 CNS): 20400 nM | GI50 (CCRF-CEM leukemia): 340 nM | TGI (CCRF-CEM leukemia): 1930 nM | GI50 (OVCAR-3 ovarian): 995 nM | TGI (OVCAR-3 ovarian): 2380 nM | GI50 (TK-10 renal): 1610 nM | TGI (TK-10 renal): 3250 nM | GI50 (HL-60(TB) leukemia): 1360 nM | TGI (HL-60(TB) leukemia): 4340 nM | GI50 (SF-268 CNS): 1780 nM | TGI (SF-268 CNS): 4910 nM | GI50 (ACHN renal): 1120 nM | TGI (ACHN renal): 2580 nM | GI50 (CAKI-1 renal): 1190 nM | TGI (CAKI-1 renal): 2520 nM | GI50 (SNB-75 CNS): 1470 nM | TGI (SNB-75 CNS): 4710 nM | GI50 (MALME-3M melanoma): 1840 nM | TGI (MALME-3M melanoma): 3610 nM | GI50 (RPMI-8226 leukemia): 917 nM | TGI (RPMI-8226 leukemia): 4340 nM | GI50 (KM12 colon): 4270 nM | TGI (KM12 colon): 15600 nM | GI50 (HOP-62 NSCLC): 4390 nM | TGI (HOP-62 NSCLC): 16600 nM | GI50 (NCI-H226 lung): 1570 nM | TGI (NCI-H226 lung): 3600 nM | GI50 (MDA-MB-231 breast): 1560 nM | TGI (MDA-MB-231 breast): 3470 nM | GI50 (OVCAR-4 ovarian): 1780 nM | TGI (OVCAR-4 ovarian): 4370 nM | GI50 (HCT-116 colon): 714 nM | TGI (HCT-116 colon): 2080 nM | GI50 (SK-MEL-5 melanoma): 1840 nM | TGI (SK-MEL-5 melanoma): 3570 nM | GI50 (SF-539 CNS): 1490 nM | TGI (SF-539 CNS): 2960 nM | GI50 (SK-OV-3 ovarian): 13600 nM | TGI (SK-OV-3 ovarian): 27700 nM | GI50 (NCI-H522 lung): 1020 nM | TGI (NCI-H522 lung): 2690 nM | GI50 (MCF7 breast): 494 nM | TGI (MCF7 breast): 2100 nM | GI50 (786-0 renal): 1370 nM | TGI (786-0 renal): 3070 nM | GI50 (LOX IMVI melanoma): 1340 nM | TGI (LOX IMVI melanoma): 2810 nM | GI50 (HT29 colon): 1140 nM | TGI (HT29 colon): 2880 nM | GI50 (HCT-15 colon): 1020 nM | TGI (HCT-15 colon): 2620 nM | GI50 (SK-MEL-2 melanoma): 1730 nM | TGI (SK-MEL-2 melanoma): 3650 nM | GI50 (NCI-H460 lung): 3940 nM | TGI (NCI-H460 lung): 16600 nM | GI50 (MOLT-4 leukemia): 2090 nM | TGI (MOLT-4 leukemia): 5000 nM | GI50 (A498 renal): 2350 nM | TGI (A498 renal): 7760 nM | GI50 (HOP-92 NSCLC): 1840 nM | TGI (HOP-92 NSCLC): 3960 nM
